The test system of test [1] is Mus musculus. The experiment in a line: Antidepressant activity in ip dosed mouse assessed as stimulation of locomotor activity. The class given is functional.
Test [2] relates to Rattus norvegicus. In words: Effect on behavioural activity in rat assessed as cocaine-induced lever response at 25 mg/kg, ip pretreated with cocaine for 335 mins by drug-discrimination studies. The class given is functional. To be noted: route intraperitoneal.
The subject of test [3] is Mus musculus. The experiment in a line: Antidepressant activity in ip dosed mouse assessed as duration of locomotor activity. In kind it is functional.
Test [4] deals with Rattus norvegicus. In words: Effect on behavioural activity in rat assessed as cocaine-induced lever response at 10 mg/kg, ip pretreated with cocaine for 335 mins by drug-discrimination studies. In kind it is functional. To be noted: route intraperitoneal.
Test [5] has as its system Mus musculus. The experiment in a line: Antidepressant activity in ip dosed mouse assessed as time to reach peak stimulation of locomotor activity. The class given is functional.
Test [6] deals with Rattus norvegicus. The experiment in a line: Effect on behavioural activity in rat assessed as cocaine-induced lever response at 100 mg/kg, ip pretreated with cocaine for 335 mins by drug-discrimination studies. In kind it is functional. To be noted: route intraperitoneal.
Test [7] concerns Rattus norvegicus. The experiment in a line: Effect on behavioural activity in rat assessed as cocaine-induced lever response at 50 mg/kg, ip pretreated with cocaine for 335 mins by drug-discrimination studies. To be noted: route intraperitoneal. The class given is functional.
Test [8] concerns Mus musculus. In words: Antidepressant activity in ip dosed mouse assessed as stimulation of locomotor activity relative to cocaine. The class given is functional.
Test [9] deals with Rattus norvegicus. In words: Effect on behavioural activity in rat assessed as cocaine-induced lever response at 25 mg/kg, ip pretreated with cocaine for 15 mins by drug-discrimination studies. To be noted: route intraperitoneal. The class given is functional.
Test [10] has as its system Rattus norvegicus. The experiment in a line: Effect on behavioural activity in rat assessed as cocaine-induced lever response at 10 mg/kg, ip pretreated with cocaine for 15 mins by drug-discrimination studies. The class given is functional. The following applies: route intraperitoneal.
Test [11] has as its system Rattus norvegicus. In words: Effect on behavioural activity in rat assessed as cocaine-induced lever response at 80 mg/kg, po pretreated with cocaine for 180 mins by drug-discrimination studies. The class given is functional.
Test [12] relates to Rattus norvegicus. The experiment in a line: Effect on behavioural activity in rat assessed as cocaine-induced lever response at 2.5 mg/kg, ip pretreated with cocaine for 15 mins by drug-discrimination studies. The class given is functional. To be noted: route intraperitoneal.
Test [13] deals with Rattus norvegicus. In words: Effect on behavioural activity in rat assessed as cocaine-induced lever response at 40 mg/kg, po pretreated with cocaine for 90 mins by drug-discrimination studies. In kind it is functional.
Test [14] has as its system Rattus norvegicus. The experiment in a line: Effect on behavioural activity in rat assessed as cocaine-induced lever response at 80 mg/kg, po pretreated with cocaine for 45 mins by drug-discrimination studies. In kind it is functional.
Test [15] relates to Rattus norvegicus. The experiment in a line: Effect on behavioural activity in rat assessed as cocaine-induced lever response at 40 mg/kg, po pretreated with cocaine for 180 mins by drug-discrimination studies. The class given is functional.
Test [16] has as its system Rattus norvegicus. In words: Effect on behavioural activity in rat assessed as cocaine-induced lever response at 5 mg/kg, po pretreated with cocaine for 90 mins by drug-discrimination studies. The class given is functional.
Test [17] deals with Rattus norvegicus. The experiment in a line: Effect on behavioural activity in rat assessed as cocaine-induced lever response at 5 mg/kg, ip pretreated with cocaine for 15 mins by drug-discrimination studies. The class given is functional. To be noted: route intraperitoneal.
Test [18] relates to Rattus norvegicus. The experiment in a line: Effect on behavioural activity in rat assessed as cocaine-induced lever response at 80 mg/kg, po pretreated with cocaine for 360 mins by drug-discrimination studies. The class given is functional.
Test [19] concerns Rattus norvegicus. In words: Effect on behavioural activity in rat assessed as cocaine-induced lever response at 5 mg/kg, po pretreated with cocaine for 360 mins by drug-discrimination studies. In kind it is functional.
Test [20] deals with Rattus norvegicus. The experiment in a line: Effect on behavioural activity in rat assessed as cocaine-induced lever response at 10 mg/kg, po pretreated with cocaine for 45 mins by drug-discrimination studies. In kind it is functional.
The test system of test [21] is Rattus norvegicus. The experiment in a line: Effect on behavioural activity in po dosed rat assessed as cocaine-induced lever response pretreated with cocaine by drug-discrimination studies. In kind it is functional.
Test [22] relates to Rattus norvegicus. In words: Effect on behavioural activity in rat assessed as cocaine-induced lever response at 2.5 mg/kg, po pretreated with cocaine for 90 mins by drug-discrimination studies. In kind it is functional.
Test [23] relates to Rattus norvegicus. The experiment in a line: Effect on behavioural activity in rat assessed as cocaine-induced lever response at 20 mg/kg, po pretreated with cocaine for 180 mins by drug-discrimination studies. In kind it is functional.
For test [24], the system named is Rattus norvegicus. The experiment in a line: Effect on behavioural activity in rat assessed as cocaine-induced lever response at 5 mg/kg, po pretreated with cocaine for 180 mins by drug-discrimination studies. The class given is functional.
Test [25] has as its target Sodium-dependent serotonin transporter (Homo sapiens, UniProt P31645). The experiment in a line: biochemical. In kind it is cell-based, HEK293.
For test [26], the system named is Rattus norvegicus. The experiment in a line: Effect on behavioural activity in rat assessed as cocaine-induced lever response at 20 mg/kg, po pretreated with cocaine for 45 mins by drug-discrimination studies. The class given is functional.
The subject of test [27] is Rattus norvegicus. The experiment in a line: Effect on behavioural activity in rat assessed as cocaine-induced lever response at 20 mg/kg, po pretreated with cocaine for 90 mins by drug-discrimination studies. In kind it is functional.
The subject of test [28] is Rattus norvegicus. The experiment in a line: Effect on behavioural activity in rat assessed as cocaine-induced lever response at 2.5 mg/kg, po pretreated with cocaine for 180 mins by drug-discrimination studies. The class given is functional.
Test [29] has as its system Rattus norvegicus. The experiment in a line: Effect on behavioural activity in rat assessed as cocaine-induced lever response at 10 mg/kg, po pretreated with cocaine for 90 mins by drug-discrimination studies. In kind it is functional.
The test system of test [30] is Rattus norvegicus. The experiment in a line: Effect on behavioural activity in rat assessed as cocaine-induced lever response at 40 mg/kg, po pretreated with cocaine for 45 mins by drug-discrimination studies. The class given is functional.
The test system of test [31] is Rattus norvegicus. In words: Effect on behavioural activity in rat assessed as cocaine-induced lever response at 40 mg/kg, po pretreated with cocaine for 360 mins by drug-discrimination studies. In kind it is functional.
For test [32], the system named is Rattus norvegicus. The experiment in a line: Effect on behavioural activity in rat assessed as cocaine-induced lever response at 2.5 mg/kg, po pretreated with cocaine for 45 mins by drug-discrimination studies. The class given is functional.
For test [33], the system named is Rattus norvegicus. In words: Effect on behavioural activity in rat assessed as cocaine-induced lever response at 10 mg/kg, po pretreated with cocaine for 360 mins by drug-discrimination studies. In kind it is functional.
Test [34] has as its system Rattus norvegicus. The experiment in a line: Effect on behavioural activity in rat assessed as cocaine-induced lever response at 2.5 mg/kg, po pretreated with cocaine for 360 mins by drug-discrimination studies. The class given is functional.
In test [35] the test system is Rattus norvegicus. The experiment in a line: Effect on behavioural activity in rat assessed as cocaine-induced lever response at 20 mg/kg, po pretreated with cocaine for 360 mins by drug-discrimination studies. The class given is functional.
Test [36] deals with Rattus norvegicus. In words: Effect on behavioural activity in rat assessed as cocaine-induced lever response at 80 mg/kg, po pretreated with cocaine for 90 mins by drug-discrimination studies. In kind it is functional.
Test [37] relates to Rattus norvegicus. The experiment in a line: Effect on behavioural activity in ip dosed rat assessed as cocaine-induced lever response pretreated with cocaine by drug-discrimination studies. The class given is functional.
Test [38] has as its system Rattus norvegicus. In words: Effect on behavioural activity in rat assessed as cocaine-induced lever response at 5 mg/kg, po pretreated with cocaine for 45 mins by drug-discrimination studies. In kind it is functional.

Chain of Sodium-dependent serotonin transporter (P31645 whole entry): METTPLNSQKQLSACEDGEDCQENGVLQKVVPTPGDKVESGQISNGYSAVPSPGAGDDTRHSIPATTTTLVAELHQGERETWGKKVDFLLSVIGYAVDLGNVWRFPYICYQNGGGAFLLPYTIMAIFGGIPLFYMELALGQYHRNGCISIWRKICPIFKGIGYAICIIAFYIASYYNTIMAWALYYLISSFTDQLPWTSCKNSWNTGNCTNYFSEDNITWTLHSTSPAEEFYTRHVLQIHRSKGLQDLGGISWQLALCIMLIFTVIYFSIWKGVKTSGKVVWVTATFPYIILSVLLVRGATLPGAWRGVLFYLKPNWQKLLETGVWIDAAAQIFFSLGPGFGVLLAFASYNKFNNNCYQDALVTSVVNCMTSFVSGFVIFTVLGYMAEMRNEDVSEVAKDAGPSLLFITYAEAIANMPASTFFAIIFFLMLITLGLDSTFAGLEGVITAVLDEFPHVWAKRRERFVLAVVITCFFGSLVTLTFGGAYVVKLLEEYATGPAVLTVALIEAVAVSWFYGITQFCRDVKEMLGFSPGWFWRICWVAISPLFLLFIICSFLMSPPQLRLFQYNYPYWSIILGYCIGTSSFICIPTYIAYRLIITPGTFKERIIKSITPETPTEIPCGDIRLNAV

One may read the ED50 as the midpoint of the dose-response relation. For `CC(C(=O)c1cccc(Cl)c1)N1CCCCC1` (configuration not stated), in the test with Mus musculus [1], the ED50 came out at 34.7 mg/kg. Besides, the Activity in the test with Rattus norvegicus [2] was found to be 16.5%; in the test with Rattus norvegicus [4], 7%; in the test on Rattus norvegicus [6] it was 33.7%; with Rattus norvegicus [7], 32.7%; with Mus musculus [8] it was 45%. In the test on Mus musculus [3], the Time worked out at 30 min. Also, the “Time to peak locomotor stimulation” value with Mus musculus [5] is 320 min.

The Ki is the dissociation constant of the complex between target and ligand, obtained from inhibition or displacement. A lower Ki goes with a stronger hold on the target. As to `CCCC(NC(C)(C)C)C(=O)c1cccc(Cl)c1` (configuration not stated), the Activity is 83.3% in the test on Rattus norvegicus [9]; 33.3% with Rattus norvegicus [10]; 50% with Rattus norvegicus [11]; 0.2% in the test with Rattus norvegicus [12]; 17% with Rattus norvegicus [13]; 100% in the test on Rattus norvegicus [14]. In addition, the Activity was found to be 17% in the test on Rattus norvegicus [15]; 0% in the test on Rattus norvegicus [16]; 17.2% in the test on Rattus norvegicus [17]; 1% in the test with Rattus norvegicus [18]; 0% with Rattus norvegicus [19]; 33% in the test with Rattus norvegicus [20]. The Activity came to 0% in the test on Rattus norvegicus [22]; 0% in the test on Rattus norvegicus [23]; 22% in the test with Rattus norvegicus [24]; 33% in the test on Rattus norvegicus [26]; 33% in the test with Rattus norvegicus [27]; 0% in the test with Rattus norvegicus [28]. In addition, the Activity in the test on Rattus norvegicus [29] was 0%; in the test with Rattus norvegicus [30], 50%; in the test on Rattus norvegicus [31] it was 16%; in the test with Rattus norvegicus [32], 0%; with Rattus norvegicus [33], 0%; with Rattus norvegicus [34], 0%. For the same compound, the Activity with Rattus norvegicus [35] worked out at 0%; in the test on Rattus norvegicus [36], 100%; in the test on Mus musculus [8] it was 108%; in the test on Rattus norvegicus [38], 17%. In addition, the figures for the ED50 in the test with Mus musculus [1], in the test on Rattus norvegicus [21] and in the test on Rattus norvegicus [37] were 15.5 mg/kg, 23.2 mg/kg and 7.8 mg/kg, respectively. In addition, the Time in the test on Mus musculus [3] came to 210 min. Moreover, the “Time to peak locomotor stimulation” value in the test with Mus musculus [5] stood at 90 min. Besides, the Ki in test [25] was over 10 µM.

The values above are taken from ChEMBL document CHEMBL1156106 (J Med Chem, 2009).
